# Values quoted from earlier work in patent US4310517A, “Tumor-resolving and histolytic medicaments and their use” (Troponwerke GmbH & Co., KG, priority 1976, dated 1982).
# Read-outs that look alike come from different tables or passages of the source.
# System: tumour cells
compound,measurement,setting,value
O=P1(N(CCCl)CCCl)NCCCO1 (centres unmarked) [cyclophosphamide],tumour cells destroyed,LD10 dosage,99.999%
same,tumour cells destroyed,one eighth of the LD10 dose,90%
